Test results reported in ChEMBL document CHEMBL1137656, “Effects of serum on in vitro susceptibility testing of echinocandins” (Antimicrob Agents Chemother, 2007).
Numbered stars: 1 amine (or outer) side, 2 acyl side, 3 side chain; on linkers, the order of the positions; unused ones are H or OH. Bridge positions count the residues as written; N and C are the ends. Square brackets hold non-standard residues; d marks the D form. Peptide text beside a SMILES is read from it. * marks the point of attachment. pTerphenylCO(4''-OnC5H11) = CCCCCOc1ccc(-c2ccc(-c3ccc(C(=O)*)cc3)cc2)cc1; Orn(4R-OH,5R-OH) = O=C([C@H](C[C@@H](O)[C@@H](O)N[*:3])N[*:1])[*:2]; hTyr(3S-OH,4S-OH) = N[C@H](C(=O)O)[C@H](O)[C@@H](O)c1ccc(O)cc1; Pro(3S-OH,4S-Me) = C[C@H]1CN[C@H](C(=O)O)[C@H]1O; Hyp = O=C(O)[C@@H]1C[C@@H](O)CN1

Assays:
Type in all cases: functional
Candida parapsilosis [1] = assay: Antifungal activity against Candida parapsilosis isolate 0026-003 after 24 hrs by CLSI M27-A2 broth microdilution method in presence of RPMI 1640 medium; settings: Lodderomyces parapsilosis, isolate 0026-003, 24 h
Pichia kudriavzevii [2] = assay: Ratio of MIC50 for Candida krusei isolate 0013-054 in presence of 50% human serum to MIC50 for Candida krusei isolate 0013-054 in presence of RPMI 1640 medium
Aspergillus fumigatus [3] = assay: Antifungal activity against Aspergillus fumigatus isolate 0002-020 after 24 hrs by CLSI M38-A broth microdilution method in presence of RPMI 1640 medium; settings: isolate 0002-020, 24 h
Candida parapsilosis [4] = assay: Antifungal activity against Candida parapsilosis ATCC 22019 after 24 hrs by CLSI M27-A2 broth microdilution method in presence of 50% human serum; settings: Lodderomyces parapsilosis, ATCC 22019, 24 h
Aspergillus fumigatus [5] = assay: Antifungal activity against Aspergillus fumigatus isolate 0002-0016 after 24 hrs by CLSI M38-A broth microdilution method in presence of 50% human serum; settings: isolate 0002-0016, 24 h
Candida parapsilosis [6] = assay: Ratio of MIC50 for Candida parapsilosis isolate 0014-074 in presence of 50% human serum to MIC50 for Candida parapsilosis isolate 0014-074 in presence of RPMI 1640 medium
Candida tropicalis [7] = assay: Antifungal activity against Candida tropicalis isolate 0022-021 after 24 hrs by CLSI M27-A2 broth microdilution method in presence of 50% human serum; settings: isolate 0022-021, 24 h
Candida albicans [8] = assay: Ratio of MIC50 for Candida albicans isolate 0021-076 in presence of 50% human serum to MIC50 for Candida albicans isolate 0021-076 in presence of RPMI 1640 medium
Clavispora lusitaniae [9] = assay: Ratio of MIC50 for Candida lusitaniae isolate 0013-002 in presence of 50% human serum to MIC50 for Candida lusitaniae isolate 0013-002 in presence of RPMI 1640 medium
Candida tropicalis [10] = assay: Antifungal activity against Candida tropicalis isolate 0050-028 after 24 hrs by CLSI M27-A2 broth microdilution method in presence of RPMI 1640 medium; settings: isolate 0050-028, 24 h
Pichia kudriavzevii [11] = assay: Antifungal activity against Candida krusei isolate 0013-054 after 24 hrs by CLSI M27-A2 broth microdilution method in presence of 50% human serum; settings: isolate 0013-054, 24 h
Candida parapsilosis [12] = assay: Antifungal activity against Candida parapsilosis isolate 0026-003 after 24 hrs by CLSI M27-A2 broth microdilution method in presence of 50% human serum; settings: Lodderomyces parapsilosis, isolate 0026-003, 24 h
Nakaseomyces glabratus [13] = assay: Ratio of MIC50 for Candida glabrata isolate 0049-038 in presence of 50% human serum to MIC50 for Candida glabrata isolate 0049-038 in presence of RPMI 1640 medium
Candida tropicalis [14] = assay: Antifungal activity against Candida tropicalis isolate 0050-028 after 24 hrs by CLSI M27-A2 broth microdilution method in presence of 50% human serum; settings: isolate 0050-028, 24 h
Aspergillus fumigatus [15] = assay: Ratio of MIC50 for Aspergillus fumigatus isolate 0002-021 in presence of 50% human serum to MIC50 for Aspergillus fumigatus isolate 0002-021 in presence of RPMI 1640 medium
Clavispora lusitaniae [16] = assay: Antifungal activity against Candida lusitaniae isolate 0013-002 after 24 hrs by CLSI M27-A2 broth microdilution method in presence of RPMI 1640 medium; settings: isolate 0013-002, 24 h
Nakaseomyces glabratus [17] = assay: Antifungal activity against Candida glabrata isolate 0049-038 after 24 hrs by CLSI M27-A2 broth microdilution method in presence of RPMI 1640 medium; settings: isolate 0049-038, 24 h
Aspergillus niger = assay: Antifungal activity against Aspergillus niger isolate 0001-073 after 24 hrs by CLSI M38-A broth microdilution method in presence of RPMI 1640 medium; settings: isolate 0001-073, 24 h
Candida albicans [18] = assay: Antifungal activity against Candida albicans isolate 0012-025 after 24 hrs by CLSI M27-A2 broth microdilution method in presence of 50% human serum; settings: isolate 0012-025, 24 h
Candida parapsilosis [19] = assay: Ratio of MIC50 for Candida parapsilosis ATCC 22019 in presence of 50% human serum to MIC50 for Candida parapsilosis ATCC 22019 in presence of RPMI 1640 medium
Candida tropicalis [20] = assay: Ratio of MIC50 for Candida tropicalis isolate 0050-028 in presence of 50% human serum to MIC50 for Candida tropicalis isolate 0050-028 in presence of RPMI 1640 medium
Clavispora lusitaniae [21] = assay: Antifungal activity against Candida lusitaniae isolate 0013-002 after 24 hrs by CLSI M27-A2 broth microdilution method in presence of 50% human serum; settings: isolate 0013-002, 24 h
Aspergillus flavus [22] = assay: Antifungal activity against Aspergillus flavus isolate 0001-061 after 24 hrs by CLSI M38-A broth microdilution method in presence of RPMI 1640 medium; settings: isolate 0001-061, 24 h
Candida albicans [23] = assay: Ratio of MIC50 for Candida albicans isolate 0012-025 in presence of 50% human serum to MIC50 for Candida albicans isolate 0012-025 in presence of RPMI 1640 medium
Pichia kudriavzevii [24] = assay: Ratio of MIC50 for Candida krusei ATCC 6258 in presence of 50% human serum to MIC50 for Candida krusei ATCC 6258 in presence of RPMI 1640 medium
Pichia kudriavzevii [25] = assay: Antifungal activity against Candida krusei ATCC 6258 after 24 hrs by CLSI M27-A2 broth microdilution method in presence of RPMI 1640 medium; settings: ATCC 6258, 24 h
Candida parapsilosis [26] = assay: Antifungal activity against Candida parapsilosis isolate 0011-013 after 24 hrs by CLSI M27-A2 broth microdilution method in presence of RPMI 1640 medium; settings: Lodderomyces parapsilosis, isolate 0011-013, 24 h
Candida parapsilosis [27] = assay: Antifungal activity against Candida parapsilosis isolate 0014-074 after 24 hrs by CLSI M27-A2 broth microdilution method in presence of 50% human serum; settings: Lodderomyces parapsilosis, isolate 0014-074, 24 h
Candida albicans [28] = assay: Antifungal activity against Candida albicans isolate 0012-025 after 24 hrs by CLSI M27-A2 broth microdilution method in presence of RPMI 1640 medium; settings: isolate 0012-025, 24 h
Aspergillus flavus [29] = assay: Ratio of MIC50 for Aspergillus flavus isolate 0001-061 in presence of 50% human serum to MIC50 for Aspergillus flavus isolate 0001-061 in presence of RPMI 1640 medium
Candida parapsilosis [30] = assay: Ratio of MIC50 for Candida parapsilosis isolate 0011-013 in presence of 50% human serum to MIC50 for Candida parapsilosis isolate 0011-013 in presence of RPMI 1640 medium
Candida tropicalis [31] = assay: Ratio of MIC50 for Candida tropicalis isolate 0022-021 in presence of 50% human serum to MIC50 for Candida tropicalis isolate 0022-021 in presence of RPMI 1640 medium

CCCCCOc1ccc(-c2ccc(-c3ccc(C(=O)N[C@H]4C[C@@H](O)[C@@H](O)NC(=O)[C@@H]5[C@@H](O)[C@@H](C)CN5C(=O)[C@H]([C@@H](C)O)NC(=O)[C@H]([C@H](O)[C@@H](O)c5ccc(O)cc5)NC(=O)[C@@H]5C[C@@H](O)CN5C(=O)[C@H]([C@@H](C)O)NC4=O)cc3)cc2)cc1 [ANIDULAFUNGIN] ({pTerphenylCO(4''-OnC5H11)}-[Orn(4R-OH,5R-OH)]T[Hyp][hTyr(3S-OH,4S-OH)]T[Pro(3S-OH,4S-Me)]; lactam 1-C)
MIC50 (Candida parapsilosis [1]): 2 µg/mL
Ratio (Pichia kudriavzevii [2]): 32
MIC50 (Aspergillus fumigatus [3]): 8 ng/mL
MIC50 (Candida parapsilosis [4]): 64 µg/mL
MIC50 (Aspergillus fumigatus [5]): 128 µg/mL
Ratio (Candida parapsilosis [6]): 64
MIC50 (Candida tropicalis [7]): 2 µg/mL
Ratio (Candida albicans [8]): 256
Ratio (Clavispora lusitaniae [9]): 512
MIC50 (Candida tropicalis [10]): 1 µg/mL
MIC50 (Pichia kudriavzevii [11]): 4 µg/mL
MIC50 (Candida parapsilosis [12]): 128 µg/mL
Ratio (Nakaseomyces glabratus [13]): 32
MIC50 (Candida tropicalis [14]): 128 µg/mL
Ratio (Aspergillus fumigatus [15]): 64000
MIC50 (Clavispora lusitaniae [16]): 2 ng/mL
MIC50 (Nakaseomyces glabratus [17]): 0.0625 µg/mL
MIC50 (Aspergillus niger): 1 ng/mL
MIC50 (Candida albicans [18]): 0.25 µg/mL
Ratio (Candida parapsilosis [19]): 128
Ratio (Candida tropicalis [20]): 128
MIC50 (Clavispora lusitaniae [21]): 1 µg/mL
MIC50 (Aspergillus flavus [22]): 4 µg/mL
Ratio (Candida albicans [23]): 16
Ratio (Pichia kudriavzevii [24]): 16
MIC50 (Pichia kudriavzevii [25]): 0.125 µg/mL
MIC50 (Candida parapsilosis [26]): 0.0313 µg/mL
MIC50 (Candida parapsilosis [27]): 0.25 µg/mL
MIC50 (Candida albicans [28]): 0.0156 µg/mL
Ratio (Aspergillus flavus [29]): 32
Ratio (Candida parapsilosis [30]): 64
Ratio (Candida tropicalis [31]): 128
